23 compounds from US11078213B2, “Thienopyrimidine compound, preparation method thereof, pharmaceutical composition and application thereof” (HONGYUN BIOTECH CO., LTD., priority 2016, dated 2021) can be followed below.

Data set [1] has as its system anaplastic large cell lymphoma Karpas-299. Kind of data set: Growth inhibitory activity on tumor cells Karpas-299. As to conditions: for IC50: Homo sapiens, Karpas-299 tumor cells. Format: cell-based. On the procedure: (§1) If the tumor cells tested were suspension cells, the assay was carried out in accordance with the method (1) above.
(§2) If the tumor cells tested were adherent cells, cells were incubated 1000-10000 cells/well in a 96-well culture plate until adherent, and then compounds were added. Others were carried out in accordance with the method (1) above.

The subject of a further data set is wild-type BaF3. Put plainly: Growth inhibition of wild-type BaF3 cells (broad-spectrum toxicity). Format: cell-based. To be noted: Mus musculus, read-out: Growth inhibitory activity IC50, BaF3.
Data set [2] addresses EML4-ALK-I1171T BaF3 cells (Homo sapiens, UniProt Q9UM73, I1171T). Put plainly: Growth inhibition of BaF3 cells stably transfected with ALK point mutation I1171T. To be noted: read-out: Growth inhibitory activity IC50, EML4-ALK-I1171T.
Method: (§6) The cell plate with uniformly mixed compound was cultured in a cell culture incubator (37° C.; 5% CO2) for 48 h, then 20 μL of MTS reaction solution was added, uniformly mixed and incubated in the cell culture incubator (37° C.; 5% CO2) for 1-4 hr; OD values at 490 nm were measured by a microplate reader (VARIOSKAN FLASH, Thermo). Three parallels were set in each group of experiments, with 0.1% (a final concentration) DMSO as a negative control, and a medium without cells or compounds as a blank control.
(§7) 4) IC50 calculation: The semi-inhibitory concentration of the compound acting on cell growth was calculated using GradPad Prism 5 software according to the measured cell growth inhibition rate.
The subject of data set [3] is kinase ALK-positive lung cancer cell line H3122. Kind of data set: Growth inhibitory activity on tumor cells H3122. The class given is cell-based. As for the experimental part: as §1, §2
The target of a further data set is T1, EML4-ALK-BaF3 (Homo sapiens, UniProt Q9UM73).
T1 construct: EML4 (echinoderm microtubule associated protein like 4, Q9HC35) fusion partner; expressed in transfected cells; host or cells: BaF3; the other entry of the earlier key: EML4 (Q9HC35, Echinoderm microtubule-associated protein-like 4)
T1 sequence (Q9UM73 1058-1620 limits assumed): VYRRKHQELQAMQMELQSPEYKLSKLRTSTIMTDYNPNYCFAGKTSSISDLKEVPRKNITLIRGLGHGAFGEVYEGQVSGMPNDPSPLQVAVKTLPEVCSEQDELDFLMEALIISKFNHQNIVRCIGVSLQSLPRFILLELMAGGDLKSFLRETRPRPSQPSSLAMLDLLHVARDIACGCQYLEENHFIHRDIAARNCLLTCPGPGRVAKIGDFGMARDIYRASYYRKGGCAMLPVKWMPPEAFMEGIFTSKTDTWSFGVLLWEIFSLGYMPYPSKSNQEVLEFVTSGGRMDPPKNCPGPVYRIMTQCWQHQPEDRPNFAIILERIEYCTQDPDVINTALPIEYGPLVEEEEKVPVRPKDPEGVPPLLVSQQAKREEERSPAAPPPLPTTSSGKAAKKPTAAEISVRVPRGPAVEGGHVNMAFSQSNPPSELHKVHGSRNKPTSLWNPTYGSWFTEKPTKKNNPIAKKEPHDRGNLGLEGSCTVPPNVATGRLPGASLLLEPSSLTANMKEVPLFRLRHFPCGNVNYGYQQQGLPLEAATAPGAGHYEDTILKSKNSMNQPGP
Put plainly: Growth inhibition of BaF3 cells stably transfected with kinase EML4-ALK (MTS). The class given is cell-based. As to conditions: compound concentration 3.3 μM, read-out: cell growth inhibition rate, EML4-ALK. As for the experimental part:
(§3) The specific test method is given as follows:
(§4) 2) Reagent: MTS reaction solution (containing 2 mg/mL of MTS [3-(4,5-dimethylthiazol-2-yl)-5-(3-carboxymethoxyphenyl)-2-(4-sulfophenyl)-2H-tetra zolium, inner Salt]; 100 µg/mL PES ([…])).

A further data set concerns the target T2, NPM-ALK-BaF3 (Homo sapiens, UniProt Q9UM73).
T2 construct: NPM (nuclear phosphoprotein / nucleophosmin, NPM1, P06748) fusion partner; expressed in transfected cells; host or cells: BaF3; the other entry of the earlier key: NPM1 (P06748, Nucleophosmin)
Put plainly: Growth inhibition of BaF3 cells stably transfected with kinase NPM-ALK (MTS). Format: cell-based. As to conditions: compound concentration 3.3 μM, read-out: cell growth inhibition rate, NPM-ALK. As for the experimental part: as §3, §4

Another data set has as its system NCI-H3122 xenograft. Put plainly: Nude mouse xenograft model of non-small cell lung cancer H3122 cells. Format: in vivo, BALB/c (nu/nu) nude mice. As to conditions: 18 consecutive days. As for the experimental part:
(§5) In this test, BALB/c (nu/nu) nude mice were used, male and female in half, 4-6 weeks old, weighing about 18±2 g, and fed in SPF level environment, strictly sterile operation. The animals to be tested were adapted to the experimental environment 1 week in advance, free access to food and water, and maintained a 12-hour circadian rhythm.
The NCI-H3122 cells used in the test were cultured with 10% fetal bovine serum in PRMI-1640 medium, and placed in a 37° C., 5% CO2 incubator environment.
A subcutaneous transplantation model of tumor nude mice was established by using cell inoculation method: cells in logarithmic growth phase were collected by filtration, washed with PBS after centrifugation, and resuspended as a single cell suspension with PRMI-1640 medium, 5×10^6 cells/200 μL per nude mouse. The cell suspension was injected subcutaneously in the vicinity of right anterior axillary of a nude mouse using a 1 mL syringe (No. 4.5 needle). When the tumor of tumor-bearing mice grew to a measurable size, the tumor volume was measured daily. When the tumor volume reached about 150 mm^3, the mice were randomly divided into 4 groups, 5 mice each group, and administration was started on the day of grouping. […] The administration was conducted for 18 consecutive days. Animal weight and tumor size were measured every other day during the test. The state of the mice was recorded daily. After the last administration, the mice were anesthetized with 5% chloral hydrate and killed 6 hours. The tumors were taken, weighed and photographed for recording. Tumor Volume (TV) was calculated as: TV=½×a×b^2, where a, b represent long diameter and short diameter of tumor, respectively.

In data set [4] the target is EML4-ALK-G1269A BaF3 cells (Homo sapiens, UniProt Q9UM73, G1269A). Put plainly: Growth inhibition of BaF3 cells stably transfected with ALK point mutation G1269A. To be noted: read-out: Growth inhibitory activity IC50, EML4-ALK-G1269A.
EML4-ALK-G1269A BaF3 cells, sequence (Q9UM73 1058-1620 G1269A limits assumed): as the sequence (Q9UM73 1058-1620 limits assumed) above, with G212A counted along it
Method: as §6, §7
Data set [5] deals with T3, EML4-ALK(G1202R)-Ba/F3 xenograft (Homo sapiens, UniProt Q9UM73, G1202R).
T3 construct: EML4 (Q9HC35) fusion partner; expressed in transfected cells; host or cells: Ba/F3; the other entry of the earlier key: EML4 (Q9HC35, Echinoderm microtubule-associated protein-like 4)
T3 sequence (Q9UM73 1058-1620 G1202R limits assumed): as the sequence (Q9UM73 1058-1620 limits assumed) above, with G145R counted along it
Put plainly: Nude mouse xenograft model of EML4-ALK(G1202R)-Ba/F3. To be noted: 10 consecutive days. Format: in vivo, BALB/c (nu/nu) nude mice. As for the experimental part: as §5
The EML4-ALK(G1202R)-Ba/F3 cells used in the test were cultured with 10% fetal bovine serum in PRMI-1640 medium, and placed in a 37° C., 5% CO2 incubator environment.
A subcutaneous transplantation model of tumor nude mice was established by using cell inoculation method: cells in logarithmic growth phase were collected by filtration, washed with PBS after centrifugation, and resuspended as a single cell suspension with PRMI-1640 medium, 1×10^6 cells/200 μL per nude mouse. The cell suspension was injected subcutaneously in the vicinity of right anterior axillary of a nude mouse using a 1 mL syringe (No. 4.5 needle). When the tumor of tumor-bearing mice grew to a measurable size, the tumor volume was measured daily. When the tumor volume reached about 150 mm^3, the mice were randomly divided into 3 groups, 8 mice each group, and administration was started on the day of grouping. The administration component was IB-1 60 mg/kg (once/day), 40 mg/kg (twice/day, bid), orally administered for 10 consecutive days, and negative control group was administered an equal amount of solvent. Animal weight and tumor size were measured daily during the test. The state of the mice was recorded daily. After the last administration, the mice were anesthetized with 5% chloral hydrate and killed 6 hours. The tumors were taken, weighed and photographed for recording. Tumor Volume (TV) was calculated as: TV=½×a×b^2, where a, b represent long diameter and short diameter of tumor, respectively.

The target in data set [6] is EML4-ALK-S1206Y BaF3 cells (Homo sapiens, UniProt Q9UM73, S1206Y). Put plainly: Growth inhibition of BaF3 cells stably transfected with ALK point mutation S1206Y. To be noted: read-out: Growth inhibitory activity IC50, EML4-ALK-S1206Y.
EML4-ALK-S1206Y BaF3 cells, sequence (Q9UM73 1058-1620 S1206Y limits assumed): as the sequence (Q9UM73 1058-1620 limits assumed) above, with S149Y counted along it
Method: as §6, §7
Data set [7] addresses EML4-ALK-G1202R BaF3 cells (Homo sapiens, UniProt Q9UM73, G1202R). Kind of data set: Growth inhibition of BaF3 cells stably transfected with ALK point mutation G1202R. To be noted: read-out: Growth inhibitory activity IC50, EML4-ALK-G1202R.
Method: as §6, §7

A value given as a limit tells only on which side of the number the result lay.

T2 sequence (Q9UM73 with tags, fused parts or gaps): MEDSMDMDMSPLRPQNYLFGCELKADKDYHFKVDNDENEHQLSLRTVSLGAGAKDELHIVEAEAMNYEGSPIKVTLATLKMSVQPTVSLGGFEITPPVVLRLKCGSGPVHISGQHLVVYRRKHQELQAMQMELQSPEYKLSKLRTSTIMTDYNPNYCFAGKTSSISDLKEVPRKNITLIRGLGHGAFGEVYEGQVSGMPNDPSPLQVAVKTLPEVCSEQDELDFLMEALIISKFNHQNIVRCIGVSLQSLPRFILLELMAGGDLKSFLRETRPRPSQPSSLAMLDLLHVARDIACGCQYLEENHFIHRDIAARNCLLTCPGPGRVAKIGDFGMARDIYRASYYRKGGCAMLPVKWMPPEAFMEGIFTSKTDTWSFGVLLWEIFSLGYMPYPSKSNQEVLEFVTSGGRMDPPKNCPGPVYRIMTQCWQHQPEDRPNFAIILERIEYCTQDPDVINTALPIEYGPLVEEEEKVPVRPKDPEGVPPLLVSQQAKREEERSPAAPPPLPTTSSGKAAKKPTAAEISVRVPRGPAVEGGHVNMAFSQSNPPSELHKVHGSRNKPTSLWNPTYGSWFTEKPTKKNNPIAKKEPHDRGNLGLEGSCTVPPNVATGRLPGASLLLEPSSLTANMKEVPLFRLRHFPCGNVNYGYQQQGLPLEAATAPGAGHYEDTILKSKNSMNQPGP
EML4-ALK-I1171T BaF3 cells, sequence (Q9UM73 1058-1620 I1171T limits assumed): as the sequence (Q9UM73 1058-1620 limits assumed) above, with I114T counted along it
EML4-ALK-G1202R BaF3 cells, sequence (Q9UM73 1058-1620 G1202R limits assumed): as the sequence (Q9UM73 1058-1620 limits assumed) above, with G145R counted along it
Method for wild-type BaF3: as §6, §7

Take `C[C@@H](Oc1cc(-c2cnn(C3CCNCC3)c2)cnc1N)c1c(Cl)ccc(F)c1Cl` [Crizotinib, reference compound]: in data set [1], it took 61 nM to reach half-maximal inhibition (IC50).
As for `COc1cc2c(cc1Nc1nc(Nc3ccccc3S(=O)(=O)C(C)C)c3sccc3n1)N(C(=O)CN(C)C)CC2` [IB-1], the IC50 in the data set with wild-type BaF3 was 1600 nM; in data set [2] it was below 4 nM; in data set [3] (Homo sapiens, NCI-H3122, H3122 tumor cells), 15 nM; in data set [1], below 4 nM; in [4] it was below 4 nM; in data set [6], below 4 nM. Besides, in [7], the IC50 was 10 nM. Besides, the “inhibitory activity against H3122 (in words)” value in data set [3] was “good inhibitory activity”. In addition, the inhibition at 3.3 µM on EML4-ALK-BaF3 came out at 87.3%; on NPM-ALK-BaF3, 96.7%. The “inhibitory activity against Karpas-299 (in words)” value in data set [1] is on record as “good inhibitory activity”. Besides, the tumor growth entry was “significantly inhibited tumor growth” in the data set on NCI-H3122 xenograft (30 mg/kg (once/day) orally); “significantly inhibited tumor growth” in the data set on NCI-H3122 xenograft (50 mg/kg (once/day) orally); “significantly inhibited tumor growth” in data set [5] (40 mg/kg (twice/day, bid) orally); “significantly inhibited tumor growth” in [5] (60 mg/kg (once/day) orally). Moreover, the “body weight during administration” value (in the data set with NCI-H3122 xenograft (drug group); in data set [5] (drug group)) was “no significant changes in body weight” each time. Moreover, the side effects result (in the data set on NCI-H3122 xenograft (drug group); in [5] (drug group)) was “no obvious side effects” throughout.
For `CNC(=O)c1ccccc1Nc1nc(Nc2ccc(N3CCC(N4CCCC4)CC3)cc2OC)nc2ccsc12` [II-7], the values for the inhibition at 3.3 µM on EML4-ALK-BaF3 and at NPM-ALK-BaF3 were 98.5% and 79.5%, respectively.
The like results for `CNC(=O)c1ccccc1Nc1nc(Nc2cc(C)c(C3CCN(C)CC3)cc2OC(C)C)nc2ccsc12` [II-8] were, in that order, above 99% and 86.6%.
The like results for `CNC(=O)c1ccccc1Nc1nc(Nc2cc(C)c(C3CCN(C)CC3)cc2OC)nc2ccsc12` [II-9] were, in that order, 99.9% and 90%.
On the same counts, the results for `COc1cc2c(cc1Nc1nc(Nc3ccccc3[S+]([O-])C(C)C)c3sccc3n1)N(C(=O)CN(C)C)CC2` (centres unmarked) [IJ-1] are above 99% and 87.1%.
In the case of `COc1cc(N2CCC(N3CCN(C)CC3)CC2)ccc1Nc1nc(Nc2ccccc2[S+]([O-])C(C)C)c2sccc2n1` (centres unmarked) [IJ-2], the inhibition at 3.3 µM was determined as 99.3% on EML4-ALK-BaF3 and 87.7% at NPM-ALK-BaF3.
With `COc1cc(N2CCC(N3CCCC3)CC2)ccc1Nc1nc(Nc2ccccc2[S+]([O-])C(C)C)c2sccc2n1` (centres unmarked) [IJ-3], the inhibition at 3.3 µM was found to be 99.9% on EML4-ALK-BaF3 and 84.8% on NPM-ALK-BaF3.
The like results for `COc1cc(N2CCN(C)CC2)ccc1Nc1nc(Nc2ccccc2[S+]([O-])C(C)C)c2sccc2n1` (centres unmarked) [IJ-4] were, in that order, above 99% and 88.8%.
`COc1cc(N2CCC(N(C)C)CC2)ccc1Nc1nc(Nc2ccccc2[S+]([O-])C(C)C)c2sccc2n1` (centres unmarked) [IJ-6]: the inhibition at 3.3 µM was above 99% at EML4-ALK-BaF3 and 81.9% on NPM-ALK-BaF3.
On to `COc1cc2c(cc1Nc1nc(Nc3ccccc3P(C)(C)=O)c3sccc3n1)N(C(=O)CN(C)C)CC2` [IK-1], for which the results for the inhibition at 3.3 µM at EML4-ALK-BaF3 and at NPM-ALK-BaF3 were above 99% and 86.7%, respectively.
On the same counts, the results for `COc1cc(N2CCC(N3CCN(C)CC3)CC2)ccc1Nc1nc(Nc2ccccc2P(C)(C)=O)c2sccc2n1` [IK-2] are 100% and 82.8%.
On the same counts, the results for `COc1cc(N2CCC(N3CCCC3)CC2)ccc1Nc1nc(Nc2ccccc2P(C)(C)=O)c2sccc2n1` [IK-3] are above 99% and 82.5%.
With `COc1cc(N2CCN(C)CC2)ccc1Nc1nc(Nc2ccccc2P(C)(C)=O)c2sccc2n1` [IK-4], the results for the inhibition at 3.3 µM at EML4-ALK-BaF3 and on NPM-ALK-BaF3 were 99.3% and 77.4%, respectively.
The like results for `COc1cc(C2CCN(C)CC2)c(C)cc1Nc1nc(Nc2ccccc2P(C)(C)=O)c2sccc2n1` [IK-5] were, in that order, 99.6% and 85.5%.
On the same counts, the results for `COc1cc(N2CCC(N(C)C)CC2)ccc1Nc1nc(Nc2ccccc2P(C)(C)=O)c2sccc2n1` [IK-6] are 99.3% and 90.2%.
On the same counts, the results for `COC(=O)c1ccccc1Sc1nc(Nc2cc3c(cc2OC)CCN3C(=O)CN(C)C)nc2ccsc12` [IN-1] are 100% and 17.7%.
Consider `COC(=O)c1ccccc1Sc1nc(Nc2ccc(N3CCC(N4CCN(C)CC4)CC3)cc2OC)nc2ccsc12` [IN-2], for which the inhibition at 3.3 µM at EML4-ALK-BaF3 is 99.2%; at NPM-ALK-BaF3, 16.2%.
For `COC(=O)c1ccccc1Sc1nc(Nc2ccc(N3CCN(C)CC3)cc2OC)nc2ccsc12` [IN-3], the inhibition at 3.3 µM on EML4-ALK-BaF3 is 98.8%; at NPM-ALK-BaF3, 12.3%.
On the same counts, the results for `COC(=O)c1ccccc1Sc1nc(Nc2ccc(N3CCC(O)CC3)cc2)nc2ccsc12` [IN-4] are 98.3% and 7.09%.
On the same counts, the results for `COC(=O)c1ccccc1Sc1nc(Nc2ccc(S(N)(=O)=O)cc2)nc2ccsc12` [IN-5] are 30.9% and 6.73%.
The like results for `COC(=O)c1ccccc1Sc1nc(Nc2ccc(N3CCC(N4CCCC4)CC3)cc2OC)nc2ccsc12` [IN-6] were, in that order, 98.4% and 46.7%.
Turning to `COC(=O)c1ccccc1Sc1nc(Nc2cc(C)c(C3CCN(C)CC3)cc2OC)nc2ccsc12` [IN-7], the inhibition at 3.3 µM at EML4-ALK-BaF3 was above 99%; at NPM-ALK-BaF3, 70%.
